Patent US10206894B2, “Compounds for use in treatment of mucositis” (priority 2011, dated 2019)
Read-outs that look alike come from different tables or passages of the source.

How the values were obtained:
[1] = test system: fractionated radiation and cisplatin induced oral mucositis, left buccal cheek pouch; assay type: in vivo; conditions: for peak mean mucositis score: peak on Day 19
Experimental: Seventy (70) male Syrian Golden Hamsters were used in this example. Mucositis was induced using a combination of fractionated radiation and cisplatin. Cisplatin was administered on Days 0 and 6 at a dose of 5 mg/kg by i.p. injection. Each hamster was administered a total radiation dose of 60 Gy directed to their left buccal cheek pouch split into eight equal fractions of 7.5 Gy provided on Days 0, 1, 2, 3, 6, 7, 8 and 9. Radiation was generated with a 160 kilovolt potential (15-ma) source at a focal distance of 50 cm, hardened with a 0.35 mm Cu filtration system. Irradiation targeted the left buccal pouch mucosa at a rate of 2.0 Gy/minute. Prior to irradiation, animals were anesthetized with an i.p. injection of ketamine (160 mg/mL) and xylazine (8 mg/mL). The left buccal pouch was everted, fixed and isolated using a lead shield. Test materials were administered topically to the left cheek pouch three times daily, as detailed in Table 3 at a dose of 3 mg/mL in a volume of 0.5 mL per dose, either on the days of radiation (Days 0-3, 6-9), the days on which radiation was not administered (−1, 4, 5 and 10), Days 0-12 or Days 0-35. Mucositis in the left cheek pouch was evaluated clinically starting on Day 7, and continuing on alternate days until Day 35. On Day 35, all animals were euthanized by CO2 inhalation and death was confirmed by monitoring heartbeat in accordance with USDA guidelines.
The mucositis score, weight change and survival were measured throughout the study. For the evaluation of mucositis, the animals were anesthetized with an inhalation anesthetic, and the left pouch everted. Mucositis was scored visually by comparison to a validated photographic scale, ranging from 0 for normal, to 5 for severe ulceration (as described above in Example 2). A score of 1-2 is considered to represent a mild stage of the disease, whereas a score of 3-5 is considered to indicate moderate to severe mucositis. Following visual scoring, a digital image was taken of each animal's mucosa using a standardized technique. At the conclusion of the experiment, images were randomly numbered and scored by two independent trained observers graded the photographs in blinded fashion using the above-described scale (blinded scoring).
The grade of mucositis was scored, beginning on day 7, and for every second day thereafter, through and including day 35, The effect on mucositis of each drug treatment compared to placebo was assessed according to the following parameters: the difference in the number of days hamsters in each group had ulcerative (score ≥3) mucositis and the rank sum differences in daily mucositis scores.
On each evaluation day, the number of animals with a blinded mucositis score of ≥3 in each drug treatment group was compared to the control group. Differences were compared on a cumulative basis and statistical significance was determined by chi-square analysis. Efficacy, in this analysis, is defined by a significant reduction in the number of days that a group of animals had ulcerations (scores ≥3) when compared to the control group.
For each evaluation day the scores of the control group were compared to those of the treated groups using non-parametric rank sum analysis. Treatment success was considered as a statistically significant lowering of scores in the treated group on 2 or more days from day 6 to day 28.
All animals were weighed daily and their survival recorded to assess possible differences in animal weight among treatment groups as an indication for mucositis severity and/or possible toxicity resulting from the treatments. No deaths were observed during this study.
An analysis of the severity of mucositis was performed using the Mann-Whitney rank sum analysis to compare the scores for each treatment group to the controls on each day of the analysis. In this analysis, 2 days of significant reduction in the mucositis score are generally required before it is regarded as meaningful.

[2] = test system: FaDu human head and neck cancer xenograft; test: Tumor growth and response to therapy in FaDu xenograft; assay type: in vivo, nude mice (nu/nu); conditions: for mice euthanized for tumor volume in excess of 1500 mm^3: vehicle groups 43.3%; for survival at Day 29: vehicle groups 26.7%; for mice euthanized for tumor ulceration: vehicle groups 30%
Experimental: Ninety (90) male nude mice (nu/nu) were divided into nine (9) groups of ten […]) mice per group. To ensure that a sufficient number of tumor-bearing animals were available for this study, a total of 100 mice were inoculated s.c. in the flank with 1×10^6 FaDu cells. FaDu (HTB-43) human head and neck cancer cells were obtained from ATCC. These cells were grown in EMEM medium supplemented with 10% Fetal Calf Serum (FCS), 1% penicillin and streptomycin, and 2 mM L-Glutamine. […] The flask was incubated at 37° C. until cells detached. Cells were then sub-cultured at a ratio of 1:3. […] Tumors were measured once every two days with micro-calipers, and tumor volume was calculated as (length×width×width)/2. Where animals were euthanized for tumor volume exceeding the maximum permissible by IACUC rules (1500 mm^3) or tumor ulceration, the last measurement was carried forward in calculations of mean tumor volume.
All animals were weighed every day and their survival recorded, to assess possible differences in animal weight among treatment groups as an indication of possible toxicity resulting from the treatments. […] Any animals whose tumor grew to over 1500 mm^3 were also euthanized.
Further analysis of the tumor volume data was performed by calculating the mean area under the curve (AUC) for the tumor volume for each animal and comparing the groups using an ANOVA on ranks test. Due to the impact of animals euthanized for tumor ulceration or volume in excess of 1500 mm^3, this analysis was performed on data to Day 15 as well as on the full data set to Day 29.

SMILES: N=C(N)NCCCCC(=O)Nc1cc(C(F)(F)F)cc(NC(=O)c2cc(C(=O)Nc3cc(C(F)(F)F)cc(NC(=O)CCCCNC(=N)N)c3OC3CCNC3)ncn2)c1OC1CCNC1 (centres unmarked) [Compound X]
- mucositis scores vs saline control group (Mann-Whitney rank sum) ([1]; 3 mg/mL tid Day 0 until Day 35, Days 11 (p=0.002), 13 (p=0.023), 15-35 (p<0.001)): statistically significant reductions
- mucositis scores vs Kleptose control group (Mann-Whitney rank sum) ([1]; 3 mg/mL tid Day 0 until Day 35, Days 17-35 (p<0.001 for all days)): statistically significant reductions
- peak mean mucositis score ([1]; 3 mg/rid (in Kleptose vehicle), dosed Days 0-3 and 6-9): 3.1
- % reduction of animal days with OM scores ≥ 3 ([1]; Fractionated Radiation): 92.6%
- percentage of hamsters in which an ulcer formed during the study ([1]; dosed Day 0 to Day 35, 100% in saline and vehicle controls): 10%
- ulceration rate ([1]; dosed Days 0-3 and 6-9, on Day 17, continued until Day 29): 100%
- percentage of animal days with a score of 3 or higher ([1]; dosed Days 0-3 and 6-9, saline control 54.7%): 58.0%
- maximum mean mucositis score ([1]; dosed Days 0-12, maximum on Days 19, 21 and 23): 3.1
- ulceration rate ([1]; dosed Days 0-12, on Day 17, continued until Day 27): 100%
- percentage of animal days with a score of 3 or higher ([1]; dosed Days 0-12, saline control 54.7%): 58.0%
- maximum mean mucositis score ([1]; dosed Days 0-35, maximum on Days 19 and 21): 2.1
- ulceration rate ([1]; dosed Days 0-35, on Days 15-23 (single hamster)): 10%
- percentage of animal days with a score of 3 or higher (incidence of ulcerative oral mucositis) ([1]; dosed Days 0-35, saline control 54.7%, Kleptose vehicle 56.0%, p<0.001): 3.3%
- ulceration rate ([1]; dosed Days −1, 4, 5, and 10, on Day 19 only): 100%
- peak mean mucositis score ([1]; dosed Days −1, 4, 5, and 10): 3.1
- percentage of animal days with a score of 3 or higher ([1]; dosed Days −1, 4, 5, and 10, saline control 54.7%): 48.0%
- mucositis scores vs control (Mann-Whitney rank sum) ([1]; dosed Days −1, 4, 5 and 10, Days 21 (p=0.018), 23, 25 (p=0.040), 33, 35 (p=0.036)): statistically significant reductions
- daily mean mucositis scores and number of days animals exhibited ulceration ([1]; fractionated radiation model, oral rinse 3 times daily, 35 day treatment regimen): significantly reduced
- adverse findings in weight gain, general behavior in the home cage, or clinical signs ([1]; hamster, in vivo): no adverse findings
- adverse reaction to treatment ([1]; hamster, in vivo): no evidence of any adverse reaction
- mean tumor volume ([2]; 0.06 mg/kg, Day 1): 102 mm^3
- mean tumor volume ([2]; 0.06 mg/kg, Day 15): 904 mm^3
- mean tumor volume ([2]; 0.06 mg/kg, Day 27 when final animal in group was euthanized): 2234 mm^3
- mean tumor volume ([2]; 0.3 mg/kg, Day 1): 96 mm^3
- mean tumor volume ([2]; 0.3 mg/kg, Day 15): 869 mm^3
- mean tumor volume ([2]; 0.3 mg/kg, end of the study): 1002 mm^3
- mean tumor volume ([2]; cisplatin plus Compound X 0.06 mg/kg, Day 1): 100 mm^3
- mean tumor volume ([2]; cisplatin plus Compound X 0.06 mg/kg, Day 15): 518 mm^3
- mean tumor volume ([2]; cisplatin plus Compound X 0.06 mg/kg, end of the study): 338 mm^3
- mean tumor volume ([2]; cisplatin plus Compound X 0.3 mg/kg, Day 1): 104 mm^3
- mean tumor volume ([2]; cisplatin plus Compound X 0.3 mg/kg, Day 15): 564 mm^3
- mean tumor volume ([2]; cisplatin plus Compound X 0.3 mg/kg, end of the study): 510 mm^3
- p, tumor volume AUC to Day 15 vs vehicle control group (ANOVA on ranks) ([2]; cisplatin plus Compound X at 0.06 mg/kg): 0.001
- p, tumor volume AUC to Day 15 vs vehicle control group (ANOVA on ranks) ([2]; cisplatin plus Compound X at 0.3 mg/kg): 0.002
- mice euthanized for tumor volume in excess of 1500 mm^3 ([2]; groups treated with 0.06 mg/kg IP QD Days 0-28 (alone, with radiation or cisplatin)): 46.7%
- survival at Day 29 ([2]; groups treated with 0.06 mg/kg): 20%
- mice euthanized for tumor ulceration ([2]; groups treated with 0.06 mg/kg): 33.3%
- mice euthanized for tumor volume in excess of 1500 mm^3 ([2]; groups treated with 0.3 mg/kg IP QD Days 0-28 (alone, with radiation or cisplatin)): 40%
- survival at Day 29 ([2]; groups treated with 0.3 mg/kg): 36.7%
- mice euthanized for tumor ulceration ([2]; groups treated with 0.3 mg/kg): 23.3%
- mean tumor volume ([2]; radiation plus 0.06 mg/kg, Day 1): 96 mm^3
- mean tumor volume ([2]; radiation plus 0.06 mg/kg, Day 15): 596 mm^3
- mean tumor volume ([2]; radiation plus 0.06 mg/kg, end of the study): 1027 mm^3
- mean tumor volume ([2]; radiation plus 0.3 mg/kg, Day 1): 108 mm^3
- mean tumor volume ([2]; radiation plus 0.3 mg/kg, Day 15): 616 mm^3
- mean tumor volume ([2]; radiation plus 0.3 mg/kg, end of the study): 1376 mm^3
- p, tumor volume AUC to Day 15 vs vehicle control group (ANOVA on ranks) ([2]; radiation plus Compound X at 0.3 mg/kg): 0.017
